In the kinase profiling compilation of Christmann-Franck et al. (2016):

Legend:
Test in all cases: KINOMEscan competition binding
Details in all cases: compound 10.0 µM
MAP3K6 (human) = MAP3K6 (human) (UniProt O95382)
NEK9 (human) = NEK9 (human) (UniProt Q8TD19)
CHEK2 (human) = CHEK2 (human) (UniProt O96017)
TNIK (human) = TNIK (human) (UniProt Q9UKE5)
PIM1 (human) = PIM1 (human) (UniProt P11309)
FER (human) = FER (human) (UniProt P16591)
CAMK1D (human) = CAMK1D (human) (UniProt Q8IU85)
STK32B (human) = STK32B (human) (UniProt Q9NY57)
Sequence of STK32B (human) (Q9NY57 whole entry, looked up): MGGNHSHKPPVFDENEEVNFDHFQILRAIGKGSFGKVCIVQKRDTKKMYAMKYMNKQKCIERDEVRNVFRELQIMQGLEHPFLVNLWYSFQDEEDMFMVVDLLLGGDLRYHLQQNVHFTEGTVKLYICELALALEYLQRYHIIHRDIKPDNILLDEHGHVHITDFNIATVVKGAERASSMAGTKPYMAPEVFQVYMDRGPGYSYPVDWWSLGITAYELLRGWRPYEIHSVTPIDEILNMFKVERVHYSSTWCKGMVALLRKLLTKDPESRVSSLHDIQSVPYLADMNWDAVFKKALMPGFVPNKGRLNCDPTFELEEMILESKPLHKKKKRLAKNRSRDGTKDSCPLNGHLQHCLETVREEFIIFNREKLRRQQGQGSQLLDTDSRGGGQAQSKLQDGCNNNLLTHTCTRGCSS

FGFR4 (human) = FGFR4 (human) (UniProt P22455)
Sequence of FGFR4 (human) (P22455 whole entry, looked up): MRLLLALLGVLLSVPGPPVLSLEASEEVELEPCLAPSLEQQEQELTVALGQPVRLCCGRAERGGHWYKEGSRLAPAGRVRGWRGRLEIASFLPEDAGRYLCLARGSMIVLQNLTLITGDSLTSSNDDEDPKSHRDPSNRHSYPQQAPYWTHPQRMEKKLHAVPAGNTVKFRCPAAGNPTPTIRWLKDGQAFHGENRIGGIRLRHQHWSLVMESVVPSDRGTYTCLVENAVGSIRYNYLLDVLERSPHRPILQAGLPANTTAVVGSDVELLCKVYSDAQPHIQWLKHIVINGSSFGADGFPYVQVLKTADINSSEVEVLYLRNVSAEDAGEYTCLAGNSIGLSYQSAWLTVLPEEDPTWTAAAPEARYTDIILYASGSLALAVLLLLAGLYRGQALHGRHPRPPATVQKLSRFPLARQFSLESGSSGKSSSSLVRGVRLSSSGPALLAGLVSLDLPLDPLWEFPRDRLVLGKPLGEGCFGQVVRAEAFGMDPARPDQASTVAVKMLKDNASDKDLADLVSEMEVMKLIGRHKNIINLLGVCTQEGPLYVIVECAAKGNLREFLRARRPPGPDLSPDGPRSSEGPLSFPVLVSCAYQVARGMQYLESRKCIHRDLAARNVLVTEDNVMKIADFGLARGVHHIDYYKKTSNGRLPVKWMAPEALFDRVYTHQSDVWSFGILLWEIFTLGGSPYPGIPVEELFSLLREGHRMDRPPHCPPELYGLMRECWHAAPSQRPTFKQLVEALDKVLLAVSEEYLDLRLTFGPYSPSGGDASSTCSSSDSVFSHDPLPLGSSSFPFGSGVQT

LIMK1 (human) = LIMK1 (human) (UniProt P53667)
RPS6KB1 (human) = RPS6KB1 (human) (UniProt P23443)
SRPK1 (human) = SRPK1 (human) (UniProt Q96SB4)
SRC (human) = SRC (human) (UniProt P12931)
Sequence of SRC (human) (P12931 whole entry, looked up): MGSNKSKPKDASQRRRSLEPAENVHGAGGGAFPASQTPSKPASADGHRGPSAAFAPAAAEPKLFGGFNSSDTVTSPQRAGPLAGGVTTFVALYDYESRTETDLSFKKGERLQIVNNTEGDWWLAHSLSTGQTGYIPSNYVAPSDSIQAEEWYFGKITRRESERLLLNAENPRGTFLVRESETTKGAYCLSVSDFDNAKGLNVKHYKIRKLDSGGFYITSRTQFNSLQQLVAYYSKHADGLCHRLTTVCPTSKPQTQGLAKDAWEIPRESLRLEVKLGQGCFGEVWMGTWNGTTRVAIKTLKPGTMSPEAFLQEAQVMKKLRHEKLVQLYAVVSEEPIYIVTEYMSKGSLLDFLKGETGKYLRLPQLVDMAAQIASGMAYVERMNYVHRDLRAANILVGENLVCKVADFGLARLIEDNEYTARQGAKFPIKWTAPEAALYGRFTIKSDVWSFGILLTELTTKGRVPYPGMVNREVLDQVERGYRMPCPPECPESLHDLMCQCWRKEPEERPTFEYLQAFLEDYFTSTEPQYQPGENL

DAPK2 (human) = DAPK2 (human) (UniProt Q9UIK4)
HIPK3 (human) = HIPK3 (human) (UniProt Q9H422)
MAP3K12 (human) = MAP3K12 (human) (UniProt Q12852)
PRKCQ (human) = PRKCQ (human) (UniProt Q04759)
INSRR (human) = INSRR (human) (UniProt P14616)
CDC42BPB (human) = CDC42BPB (human) (UniProt Q9Y5S2)
DCLK3 (human) = DCLK3 (human) (UniProt Q9C098)
BRSK2 (human) = BRSK2 (human) (UniProt Q8IWQ3)
Sequence of BRSK2 (human) (Q8IWQ3 whole entry, looked up): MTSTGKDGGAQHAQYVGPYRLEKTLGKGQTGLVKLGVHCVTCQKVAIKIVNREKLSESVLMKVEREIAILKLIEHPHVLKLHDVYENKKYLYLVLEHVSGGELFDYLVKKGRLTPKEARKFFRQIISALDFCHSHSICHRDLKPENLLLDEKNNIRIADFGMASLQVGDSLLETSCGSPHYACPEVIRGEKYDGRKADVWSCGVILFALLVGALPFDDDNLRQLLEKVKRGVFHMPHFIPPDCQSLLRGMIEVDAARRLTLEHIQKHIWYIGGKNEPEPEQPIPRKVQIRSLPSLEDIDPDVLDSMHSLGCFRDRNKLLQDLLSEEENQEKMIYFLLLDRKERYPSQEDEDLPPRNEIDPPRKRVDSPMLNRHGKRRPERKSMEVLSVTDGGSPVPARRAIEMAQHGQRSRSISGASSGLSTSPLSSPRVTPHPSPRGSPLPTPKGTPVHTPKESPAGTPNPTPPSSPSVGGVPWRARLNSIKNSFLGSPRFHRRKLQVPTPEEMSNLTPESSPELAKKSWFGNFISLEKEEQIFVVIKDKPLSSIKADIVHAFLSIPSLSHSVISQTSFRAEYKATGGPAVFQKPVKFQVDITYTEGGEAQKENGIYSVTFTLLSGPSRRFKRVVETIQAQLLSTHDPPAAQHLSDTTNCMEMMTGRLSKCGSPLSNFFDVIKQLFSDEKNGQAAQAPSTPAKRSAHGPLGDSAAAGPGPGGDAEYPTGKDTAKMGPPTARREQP

NEK11 (human) = NEK11 (human) (UniProt Q8NG66)
BMPR2 (human) = BMPR2 (human) (UniProt Q13873)
NEK4 (human) = NEK4 (human) (UniProt P51957)
HIPK2 (human) = HIPK2 (human) (UniProt Q9H2X6)
EPHA4 (human) = EPHA4 (human) (UniProt P54764)
PRKAA1 (human) = PRKAA1 (human) (UniProt Q13131)
CAMK2D (human) = CAMK2D (human) (UniProt Q13557)
MYLK (human) = MYLK (human) (UniProt Q15746)
STK39 (human) = STK39 (human) (UniProt Q9UEW8)
ACVRL1 (human) = ACVRL1 (human) (UniProt P37023)
ROS1 (human) = ROS1 (human) (UniProt P08922)
AKT3 (human) = AKT3 (human) (UniProt Q9Y243)
AURKC (human) = AURKC (human) (UniProt Q9UQB9)
CSK (human) = CSK (human) (UniProt P41240)
MAP4K5 (human) = MAP4K5 (human) (UniProt Q9Y4K4)
AURKA (human) = AURKA (human) (UniProt O14965)
MAP4K2 (human) = MAP4K2 (human) (UniProt Q12851)
CASK (human) = CASK (human) (UniProt O14936)

Sequence of PIM1 (human) (P11309 whole entry, looked up): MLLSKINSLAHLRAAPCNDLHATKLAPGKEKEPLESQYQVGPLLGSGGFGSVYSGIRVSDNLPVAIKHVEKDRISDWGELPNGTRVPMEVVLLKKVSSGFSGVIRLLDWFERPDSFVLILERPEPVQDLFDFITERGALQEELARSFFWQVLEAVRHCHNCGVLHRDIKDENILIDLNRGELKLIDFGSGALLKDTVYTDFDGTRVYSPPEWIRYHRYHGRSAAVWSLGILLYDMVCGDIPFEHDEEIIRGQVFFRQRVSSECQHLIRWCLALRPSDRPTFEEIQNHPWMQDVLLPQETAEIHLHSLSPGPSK
Sequence of CAMK1D (human) (Q8IU85 whole entry, looked up): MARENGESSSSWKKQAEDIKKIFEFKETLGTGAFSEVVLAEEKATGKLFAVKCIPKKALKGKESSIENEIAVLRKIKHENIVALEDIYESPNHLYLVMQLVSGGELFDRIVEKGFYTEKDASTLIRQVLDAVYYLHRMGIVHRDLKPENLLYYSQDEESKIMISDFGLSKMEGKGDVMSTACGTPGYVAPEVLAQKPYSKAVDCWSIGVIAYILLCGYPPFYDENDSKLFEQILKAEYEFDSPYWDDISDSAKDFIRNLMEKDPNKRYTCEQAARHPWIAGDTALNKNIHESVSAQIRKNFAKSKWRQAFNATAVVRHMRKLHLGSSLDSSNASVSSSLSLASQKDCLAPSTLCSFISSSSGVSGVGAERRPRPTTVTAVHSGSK
Sequence of MAP3K6 (human) (O95382 whole entry, looked up): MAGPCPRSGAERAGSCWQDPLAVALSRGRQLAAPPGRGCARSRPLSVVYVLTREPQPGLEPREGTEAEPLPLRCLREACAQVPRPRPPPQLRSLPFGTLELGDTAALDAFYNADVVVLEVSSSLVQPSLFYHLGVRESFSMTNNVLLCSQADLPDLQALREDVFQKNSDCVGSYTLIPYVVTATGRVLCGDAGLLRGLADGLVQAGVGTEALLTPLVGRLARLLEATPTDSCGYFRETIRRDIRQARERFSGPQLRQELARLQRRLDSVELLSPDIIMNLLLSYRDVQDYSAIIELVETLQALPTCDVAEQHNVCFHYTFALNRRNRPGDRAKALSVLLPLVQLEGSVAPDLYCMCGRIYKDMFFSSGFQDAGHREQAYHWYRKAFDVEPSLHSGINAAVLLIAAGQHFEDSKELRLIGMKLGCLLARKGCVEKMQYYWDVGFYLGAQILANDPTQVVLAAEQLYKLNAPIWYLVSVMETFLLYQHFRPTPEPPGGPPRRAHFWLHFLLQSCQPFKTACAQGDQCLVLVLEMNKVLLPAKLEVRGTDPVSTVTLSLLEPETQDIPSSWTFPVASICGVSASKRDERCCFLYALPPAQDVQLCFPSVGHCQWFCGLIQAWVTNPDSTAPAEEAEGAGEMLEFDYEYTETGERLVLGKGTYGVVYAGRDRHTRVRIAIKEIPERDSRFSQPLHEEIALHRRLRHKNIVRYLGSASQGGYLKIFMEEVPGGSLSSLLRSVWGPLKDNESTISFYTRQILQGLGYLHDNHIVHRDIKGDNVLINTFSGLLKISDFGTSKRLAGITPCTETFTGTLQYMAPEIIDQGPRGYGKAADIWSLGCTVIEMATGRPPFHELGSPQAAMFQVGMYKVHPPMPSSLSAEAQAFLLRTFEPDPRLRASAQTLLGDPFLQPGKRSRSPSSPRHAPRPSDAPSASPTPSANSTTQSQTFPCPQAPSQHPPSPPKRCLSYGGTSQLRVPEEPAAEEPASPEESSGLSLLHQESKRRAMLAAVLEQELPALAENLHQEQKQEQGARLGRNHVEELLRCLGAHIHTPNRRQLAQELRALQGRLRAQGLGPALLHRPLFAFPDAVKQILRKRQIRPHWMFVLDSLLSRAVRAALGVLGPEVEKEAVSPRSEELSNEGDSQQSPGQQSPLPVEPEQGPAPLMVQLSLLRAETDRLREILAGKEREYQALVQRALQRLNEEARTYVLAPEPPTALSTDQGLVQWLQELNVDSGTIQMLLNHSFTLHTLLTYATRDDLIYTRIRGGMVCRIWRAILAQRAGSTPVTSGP
Sequence of CHEK2 (human) (O96017 whole entry, looked up): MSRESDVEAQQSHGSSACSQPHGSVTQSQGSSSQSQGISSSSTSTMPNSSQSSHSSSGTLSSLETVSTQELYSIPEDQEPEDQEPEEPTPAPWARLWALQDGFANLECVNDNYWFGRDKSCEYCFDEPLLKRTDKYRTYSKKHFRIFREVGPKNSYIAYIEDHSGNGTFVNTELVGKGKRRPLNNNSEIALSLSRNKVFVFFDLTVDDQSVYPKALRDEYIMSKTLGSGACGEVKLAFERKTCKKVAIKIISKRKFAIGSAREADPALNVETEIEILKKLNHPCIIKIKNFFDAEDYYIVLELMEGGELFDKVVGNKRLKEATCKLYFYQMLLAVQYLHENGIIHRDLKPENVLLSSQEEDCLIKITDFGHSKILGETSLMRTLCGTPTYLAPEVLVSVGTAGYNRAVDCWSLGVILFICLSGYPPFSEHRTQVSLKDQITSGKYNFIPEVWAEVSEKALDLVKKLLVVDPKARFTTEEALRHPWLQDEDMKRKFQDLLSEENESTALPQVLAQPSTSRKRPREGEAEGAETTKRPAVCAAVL

Compound	kinase still bound, per cent of control (MAP3K6 (human))	kinase still bound, per cent of control (NEK9 (human))	kinase still bound, per cent of control (CHEK2 (human))	kinase still bound, per cent of control (TNIK (human))	kinase still bound, per cent of control (PIM1 (human))	kinase still bound, per cent of control (FER (human))	kinase still bound, per cent of control (CAMK1D (human))	kinase still bound, per cent of control (STK32B (human))	kinase still bound, per cent of control (FGFR4 (human))	kinase still bound, per cent of control (LIMK1 (human))	kinase still bound, per cent of control (SRC (human))	kinase still bound, per cent of control (DAPK2 (human))	kinase still bound, per cent of control (HIPK3 (human))	kinase still bound, per cent of control (MAP3K12 (human))	kinase still bound, per cent of control (INSRR (human))	kinase still bound, per cent of control (CDC42BPB (human))	kinase still bound, per cent of control (DCLK3 (human))	kinase still bound, per cent of control (BRSK2 (human))	kinase still bound, per cent of control (BMPR2 (human))	kinase still bound, per cent of control (HIPK2 (human))	further results
C[C@@H](Oc1cc(-c2cnn(C3CCNCC3)c2)cnc1N)c1c(Cl)ccc(F)c1Cl	87%	6.2%	100%	51%	100%	2%	37%	100%	98%	2.7%	0.55%	97%	92%	9%	0.25%	62%	42%	65%	28%	93%	kinase still bound, per cent of control (RPS6KB1 (human)): 1.8%; kinase still bound, per cent of control (SRPK1 (human)): 26%; kinase still bound, per cent of control (PRKCQ (human)): 88%; kinase still bound, per cent of control (NEK11 (human)): 98%; kinase still bound, per cent of control (NEK4 (human)): 25%; kinase still bound, per cent of control (EPHA4 (human)): 6%; kinase still bound, per cent of control (PRKAA1 (human)): 8%; kinase still bound, per cent of control (CAMK2D (human)): 100%; kinase still bound, per cent of control (MYLK (human)): 82%; kinase still bound, per cent of control (STK39 (human)): 99%; kinase still bound, per cent of control (ACVRL1 (human)): 45%; kinase still bound, per cent of control (ROS1 (human)): 1.1%; kinase still bound, per cent of control (AKT3 (human)): 100%; kinase still bound, per cent of control (AURKC (human)): 3.4%
CCN(CC)CCCCNc1ncc2c(n1)N(C)C(=O)N(c1c(Cl)c(OC)cc(OC)c1Cl)C2	100%	100%	100%	100%	100%	100%	25%	100%	0.75%	100%	100%	100%	100%	100%	100%	100%	100%	100%	100%	100%	kinase still bound, per cent of control (CSK (human)): 100%; kinase still bound, per cent of control (SRPK1 (human)): 100%; kinase still bound, per cent of control (PRKCQ (human)): 100%; kinase still bound, per cent of control (MAP4K5 (human)): 23%; kinase still bound, per cent of control (EPHA4 (human)): 100%; kinase still bound, per cent of control (AURKA (human)): 100%; kinase still bound, per cent of control (MAP4K2 (human)): 100%; kinase still bound, per cent of control (PRKAA1 (human)): 100%; kinase still bound, per cent of control (CAMK2D (human)): 100%; kinase still bound, per cent of control (MYLK (human)): 100%; kinase still bound, per cent of control (STK39 (human)): 100%; kinase still bound, per cent of control (ACVRL1 (human)): 100%; kinase still bound, per cent of control (ROS1 (human)): 100%; kinase still bound, per cent of control (AKT3 (human)): 100%; kinase still bound, per cent of control (AURKC (human)): 100%
CS(=O)(=O)N1CCN(Cc2cc3nc(-c4cccc5[nH]ncc45)nc(N4CCOCC4)c3s2)CC1	100%	100%	100%	100%	100%	100%	100%	100%	100%	100%	100%	100%	100%	100%	100%	100%	100%	100%	100%	100%	kinase still bound, per cent of control (CSK (human)): 100%; kinase still bound, per cent of control (SRPK1 (human)): 100%; kinase still bound, per cent of control (PRKCQ (human)): 100%; kinase still bound, per cent of control (MAP4K5 (human)): 100%; kinase still bound, per cent of control (EPHA4 (human)): 100%; kinase still bound, per cent of control (AURKA (human)): 100%; kinase still bound, per cent of control (MAP4K2 (human)): 100%; kinase still bound, per cent of control (PRKAA1 (human)): 100%; kinase still bound, per cent of control (CAMK2D (human)): 100%; kinase still bound, per cent of control (MYLK (human)): 100%; kinase still bound, per cent of control (STK39 (human)): 100%; kinase still bound, per cent of control (ACVRL1 (human)): 100%; kinase still bound, per cent of control (ROS1 (human)): 100%; kinase still bound, per cent of control (AKT3 (human)): 100%; kinase still bound, per cent of control (AURKC (human)): 100%
COc1cc2ncn(-c3cc(OCc4ccccc4C(F)(F)F)c(C(N)=O)s3)c2cc1OC	84%	48%	100%	32%	89%	100%	100%	100%	77%	79%	64%	36%	77%	68%	100%	64%	100%	31%	69%	89%	kinase still bound, per cent of control (CSK (human)): 97%; kinase still bound, per cent of control (RPS6KB1 (human)): 65%; kinase still bound, per cent of control (MAP4K5 (human)): 3%; kinase still bound, per cent of control (NEK11 (human)): 100%; kinase still bound, per cent of control (NEK4 (human)): 52%; kinase still bound, per cent of control (EPHA4 (human)): 83%; kinase still bound, per cent of control (AURKA (human)): 100%; kinase still bound, per cent of control (MAP4K2 (human)): 53%; kinase still bound, per cent of control (PRKAA1 (human)): 68%; kinase still bound, per cent of control (CAMK2D (human)): 75%; kinase still bound, per cent of control (CASK (human)): 93%; kinase still bound, per cent of control (MYLK (human)): 50%; kinase still bound, per cent of control (STK39 (human)): 89%; kinase still bound, per cent of control (ACVRL1 (human)): 100%; kinase still bound, per cent of control (ROS1 (human)): 78%; kinase still bound, per cent of control (AKT3 (human)): 100%; kinase still bound, per cent of control (AURKC (human)): 27%
